Source: US7247634B2, “Rifamycin derivatives effective against drug-resistant microbes” (Cumbre Pharmaceuticals Inc., priority 2004, dated 2007)
Converted amounts (≈) assume the structure as drawn.

What was measured:
Assay type in all cases: cell-based
[1] = tested on: Staphylococcus epidermidis ATCC12228; assay: MIC, microbroth dilution (NCCLS); conditions: rifS strain, Cation-Adjusted Mueller-Hinton Broth, 37° C., read-out: Antimicrobial activity (MIC)
[2] = tested on: Streptococcus pyogenes ATCC19615; assay: MIC, microbroth dilution (NCCLS); conditions: rifS strain, THY Broth, 37° C., read-out: Antimicrobial activity (MIC)
[3] = tested on: Streptococcus pneumoniae ATCC6303; assay: MIC, microbroth dilution (NCCLS); conditions: rifS strain, THY Broth with 1 mg/mL catalase, 5% CO2, 37° C., read-out: Antimicrobial activity (MIC)
[4] = tested on: Enterococcus faecalis ATCC29212; assay: MIC, microbroth dilution (NCCLS); conditions: rifS strain, BHI Broth, 37° C., read-out: Antimicrobial activity (MIC)
[5] = tested on: Mycobacterium smegmatis ATCC700084; assay: MIC, microbroth dilution (NCCLS); conditions: Mycolicibacterium smegmatis, rifS strain, Middlebrook Broth plus ADC Enrichment, 37° C., read-out: Antimicrobial activity (MIC)
[6] = tested on: Staphylococcus aureus EN1252a gyrA^S84L grlA^S80F; assay: microbe, parasite or virus in culture; conditions: read-out: Antimicrobial activity (MIC)
Procedure: (§1) Representative compounds were assayed for antimicrobial activity as follows: Minimum Inhibitory Concentrations (“MICs”) were determined by the microbroth dilution method as per NCCLS guidelines (National Committee for Clinical Laboratory Standards. 2000. Methods for dilution antimicrobial susceptibility tests for bacteria that grow aerobically, 5th ed. M7-A5. National Committee for Clinical Laboratory Standards, Wayne, Pa.), except that all growth incubations were conducted at 37° C. Bacterial cultures were tested in the following bacteriological media: S. aureus, S. epidermidis, and E. coli in Cation-Adjusted Mueller-Hinton Broth, S. pneumoniae in THY Broth supplemented with 1 mg/mL catalase under 5% CO2 atmosphere, S. pyogenes in THY Broth, E. faecalis in BHI Broth, H. influenzae in BHI Broth supplemented with 0.75 μL of 1 mg/mL NAD and 150 μL of 1 mg/ml hematin per 5 mL, and M. smegmatis in Middlebrook Broth plus ADC Enrichment.
(§2) S. aureus ATCC 29213 RpoB^H418Y is a rifampin-resistant strain with a mutation in RNA polymerase, the biological target of rifamycin antibiotics. […] S. aureus EN1252a gyrA^S84L grlA^S80F is a quinolone-resistant strain due to double mutations to DNA gyrase and topoisomerase IV, the two biological targets for quinolone antibiotics.

[7] = tested on: Staphylococcus aureus ATCC29213 rpoB^H418Y; assay: microbe, parasite or virus in culture; conditions: ATCC29213, read-out: Antimicrobial activity (MIC)
Procedure: as §1, §2

[8] = tested on: Staphylococcus aureus ATCC29213 rpoB^D417Y; assay: microbe, parasite or virus in culture; conditions: ATCC29213, read-out: Antimicrobial activity (MIC)
Procedure: as §1, §2

[9] = tested on: Escherichia coli ATCC25922; assay: MIC, microbroth dilution (NCCLS); conditions: rifS strain, Cation-Adjusted Mueller-Hinton Broth, 37° C., read-out: Antimicrobial activity (MIC)
[10] = tested on: Haemophilus influenzae ATCC10211; assay: MIC, microbroth dilution (NCCLS); conditions: rifS strain, BHI Broth with NAD and hematin, 37° C., read-out: Antimicrobial activity (MIC)
[11] = tested on: Staphylococcus aureus ATCC29213; assay: MIC, microbroth dilution (NCCLS); conditions: rifS strain, Cation-Adjusted Mueller-Hinton Broth, 37° C., read-out: Antimicrobial activity (MIC)

SMILES	MIC [1] [µg/mL]	MIC [2] [µg/mL]	MIC [3] [µg/mL]	MIC [4] [µg/mL]	MIC [5] [µg/mL]	MIC [6] [µg/mL]	MIC [7] [µg/mL]	MIC [8] [µg/mL]	MIC [9] [µg/mL]	MIC [10] [µg/mL]	MIC [11] [µg/mL]
COc1c(N2CCCC(NC(=O)C3CN(C4=C5NC(=O)/C(C)=C\C=C\[C@H](C)[C@H](O)[C@@H](C)[C@@H](O)[C@@H](C)[C@H](OC(C)=O)[C@H](C)[C@@H](OC)/C=C/O[C@@]6(C)Oc7c(C)c(O)c(c(c7C6=O)C4=O)C5=O)C3)C2)c(F)cc2c(=O)c(C(=O)O)cn(C3CC3)c12 (mixture of isomers) [Example 46, 3-{3-[1-(3-Carboxy-1-cyclopropyl-6-fluoro-8-methoxy-4-oxo-1,4-dihydroquinolin-7-yl)-piperidin-3-ylcarbamoyl]-azetidin-1-yl}rifamycin S]	0.008 to 0.063	0.008 to 0.063	0.008 to 0.125	2 to 32	0.5 to 64	0.004 to 0.5	0.06 to 16	0.06 to 32	0.125 to 8	0.125 to 2	0.004 to 0.5
CO[C@H]1/C=C/O[C@@]2(C)Oc3c(C)c(O)c4c(c3C2=O)C(=O)C(NC2CCN(c3c(F)cc5c(=O)c(C(=O)O)cn(C6CC6)c5c3Cl)C2)=C(NC(=O)/C(C)=C\C=C\[C@H](C)[C@H](O)[C@@H](C)[C@@H](O)[C@@H](C)[C@H](OC(C)=O)[C@@H]1C)C4=O (mixture of isomers) [Example 7, (R/S)-3-[1-(3-Carboxy-8-chloro-1-cyclopropyl-6-fluoro-4-oxo-1,4-dihydroquinolin-7-yl)-pyrrolidin-3-ylamino]rifamycin S]	0.008 to 0.063 (≈ 0.00755 to 0.0595 µM)	0.008 to 0.063 (≈ 0.00755 to 0.0595 µM)	0.008 to 0.125 (≈ 0.00755 to 0.118 µM)	2 to 32 (≈ 1.89 to 30.2 µM)	0.5 to 64	0.004 to 0.5 (≈ 0.00378 to 0.472 µM)	0.06 to 16 (≈ 0.0566 to 15.1 µM)	0.06 to 32 (≈ 0.0566 to 30.2 µM)	0.125 to 8 (≈ 0.118 to 7.55 µM)	0.125 to 2 (≈ 0.118 to 1.89 µM)	0.004 to 0.5 (≈ 0.00378 to 0.472 µM)
CO[C@H]1/C=C/O[C@@]2(C)Oc3c(C)c(O)c4c(O)c(c(CNC5CCN(c6c(F)cc7c(=O)c(C(=O)O)cn(C8CC8)c7c6Cl)C5)c(O)c4c3C2=O)NC(=O)/C(C)=C\C=C\[C@H](C)[C@H](O)[C@@H](C)[C@@H](O)[C@@H](C)[C@H](OC(C)=O)[C@@H]1C (mixture of isomers) [Example 13, (R/S)-3-[1-(8-Chloro-3-carboxy-1-cyclopropyl-6-fluoro-4-oxo-1,4-dihydroquinolin-7-yl)-pyrrolidinyl-3-aminomethyl]rifamycin SV]	0.008 to 0.063 (≈ 0.00744 to 0.0586 µM)	0.008 to 0.063 (≈ 0.00744 to 0.0586 µM)	0.008 to 0.125 (≈ 0.00744 to 0.116 µM)	2 to 32 (≈ 1.86 to 29.8 µM)	0.5 to 64	0.004 to 0.5 (≈ 0.00372 to 0.465 µM)	0.06 to 16 (≈ 0.0558 to 14.9 µM)	0.06 to 32 (≈ 0.0558 to 29.8 µM)	0.125 to 8 (≈ 0.116 to 7.44 µM)	0.125 to 2 (≈ 0.116 to 1.86 µM)	0.004 to 0.5 (≈ 0.00372 to 0.465 µM)
COc1c(N2CCC(NC3=C4NC(=O)/C(C)=C\C=C\[C@H](C)[C@H](O)[C@@H](C)[C@@H](O)[C@@H](C)[C@H](OC(C)=O)[C@H](C)[C@@H](OC)/C=C/O[C@@]5(C)Oc6c(C)c(O)c(c(c6C5=O)C3=O)C4=O)C2)c(F)cc2c(=O)c(C(=O)O)cn(C3CC3)c12 (mixture of isomers) [Example 27]	0.008 to 0.063 (≈ 0.00758 to 0.0597 µM)	0.008 to 0.063 (≈ 0.00758 to 0.0597 µM)	0.008 to 0.125 (≈ 0.00758 to 0.118 µM)	2 to 32 (≈ 1.9 to 30.3 µM)	0.5 to 64	0.004 to 0.5 (≈ 0.00379 to 0.474 µM)	0.06 to 16 (≈ 0.0569 to 15.2 µM)	0.06 to 32 (≈ 0.0569 to 30.3 µM)	0.125 to 8 (≈ 0.118 to 7.58 µM)	0.125 to 2 (≈ 0.118 to 1.9 µM)	0.004 to 0.5 (≈ 0.00379 to 0.474 µM)
COc1c(N2CCC(N(C)C3=C4NC(=O)/C(C)=C\C=C\[C@H](C)[C@H](O)[C@@H](C)[C@@H](O)[C@@H](C)[C@H](OC(C)=O)[C@H](C)[C@@H](OC)/C=C/O[C@@]5(C)Oc6c(C)c(O)c(c(c6C5=O)C3=O)C4=O)C2)c(F)cc2c(=O)c(C(=O)O)cn(C3CC3)c12 (mixture of isomers) [Example 28]	0.008 to 0.063 (≈ 0.00748 to 0.0589 µM)	0.008 to 0.063 (≈ 0.00748 to 0.0589 µM)	0.008 to 0.125 (≈ 0.00748 to 0.117 µM)	2 to 32 (≈ 1.87 to 29.9 µM)	0.5 to 64	0.004 to 0.5 (≈ 0.00374 to 0.468 µM)	0.06 to 16 (≈ 0.0561 to 15 µM)	0.06 to 32 (≈ 0.0561 to 29.9 µM)	0.125 to 8 (≈ 0.117 to 7.48 µM)	0.125 to 2 (≈ 0.117 to 1.87 µM)	0.004 to 0.5 (≈ 0.00374 to 0.468 µM)
